Test results: PubChem BioAssay (NCI)
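Five concentrations, 48 hours, 96-well plates. GI50 = concentration required for 50% inhibition of growth. The concentration for full growth arrest is given as TGI.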

Key:
Test in all cases: NCI anticancer screen, dose series, 48 h; in the data active = GI50 below about 0.43 µM; inactive = the rest
SF-539 CNS = system: SF-539 CNS
SF-295 CNS = system: SF-295 CNS
MDA-MB-435 = system: MDA-MB-435
A549 NSCLC = system: A549 NSCLC
K-562 leukemia = system: K-562 leukemia
TK-10 renal = system: TK-10 renal
A498 renal = system: A498 renal
M14 melanoma = system: M14 melanoma
KM12 colon = system: KM12 colon
OVCAR-5 ovarian = system: OVCAR-5 ovarian
HCC-2998 colon = system: HCC-2998 colon
SK-OV-3 ovarian = system: SK-OV-3 ovarian
SN12C renal = system: SN12C renal
UACC-62 melanoma = system: UACC-62 melanoma
UO-31 renal = system: UO-31 renal
RPMI-8226 leukemia = system: RPMI-8226 leukemia
DU-145 prostate = system: DU-145 prostate
COLO 205 colon = system: COLO 205 colon
SR leukemia = system: SR leukemia
OVCAR-3 ovarian = system: OVCAR-3 ovarian
NCI-H522 lung = system: NCI-H522 lung
ACHN renal = system: ACHN renal
CAKI-1 renal = system: CAKI-1 renal
MCF7 breast = system: MCF7 breast
CCRF-CEM leukemia = system: CCRF-CEM leukemia
SK-MEL-2 melanoma = system: SK-MEL-2 melanoma
T-47D breast = system: T-47D breast
SNB-19 CNS = system: SNB-19 CNS
SF-268 CNS = system: SF-268 CNS
SNB-75 CNS = system: SNB-75 CNS
MDA-MB-231 breast = system: MDA-MB-231 breast
HS 578T breast = system: HS 578T breast
SW-620 colon = system: SW-620 colon
HL-60(TB) leukemia = system: HL-60(TB) leukemia
HOP-62 NSCLC = system: HOP-62 NSCLC
U251 CNS = system: U251 CNS
HOP-92 NSCLC = system: HOP-92 NSCLC
SK-MEL-28 melanoma = system: SK-MEL-28 melanoma
NCI-H460 lung = system: NCI-H460 lung
OVCAR-4 ovarian = system: OVCAR-4 ovarian
PC-3 prostate = system: PC-3 prostate
EKVX NSCLC = system: EKVX NSCLC
IGROV1 ovarian = system: IGROV1 ovarian
HT29 colon = system: HT29 colon
786-0 renal = system: 786-0 renal
MOLT-4 leukemia = system: MOLT-4 leukemia
SK-MEL-5 melanoma = system: SK-MEL-5 melanoma
MALME-3M melanoma = system: MALME-3M melanoma
HCT-116 colon = system: HCT-116 colon
NCI-H23 lung = system: NCI-H23 lung
NCI/ADR-RES ovarian = system: NCI/ADR-RES ovarian
NCI-H226 lung = system: NCI-H226 lung
LOX IMVI melanoma = system: LOX IMVI melanoma
HCT-15 colon = system: HCT-15 colon
RXF 393 renal = system: RXF 393 renal
UACC-257 melanoma = system: UACC-257 melanoma
OVCAR-8 ovarian = system: OVCAR-8 ovarian
BT-549 breast = system: BT-549 breast

CSc1ccc(C2=NN(c3ccccc3)C(c3ccc(-c4cc(Cl)c(Cl)cc4Cl)o3)C2)cc1 (stereo not drawn)
> 100 µM: TGI (SF-539 CNS) | TGI (SF-295 CNS) | TGI (MDA-MB-435) | TGI (A549 NSCLC) | TGI (K-562 leukemia) | TGI (TK-10 renal) | TGI (A498 renal) | TGI (M14 melanoma) | TGI (KM12 colon) | TGI (OVCAR-5 ovarian) | TGI (HCC-2998 colon) | TGI (SK-OV-3 ovarian) | TGI (SN12C renal) | TGI (UACC-62 melanoma) | TGI (UO-31 renal) | TGI (RPMI-8226 leukemia) | TGI (DU-145 prostate) | TGI (COLO 205 colon) | TGI (SR leukemia) | TGI (OVCAR-3 ovarian) | TGI (NCI-H522 lung) | TGI (ACHN renal) | TGI (CAKI-1 renal) | TGI (MCF7 breast) | TGI (CCRF-CEM leukemia) | TGI (SK-MEL-2 melanoma) | TGI (T-47D breast) | TGI (SNB-19 CNS) | TGI (SF-268 CNS) | TGI (MDA-MB-231 breast) | TGI (HS 578T breast) | TGI (SW-620 colon) | TGI (HL-60(TB) leukemia) | TGI (HOP-62 NSCLC) | TGI (U251 CNS) | TGI (SK-MEL-28 melanoma) | TGI (NCI-H460 lung) | TGI (OVCAR-4 ovarian) | TGI (PC-3 prostate) | TGI (EKVX NSCLC) | TGI (IGROV1 ovarian) | TGI (HT29 colon) | TGI (786-0 renal) | TGI (MOLT-4 leukemia) | TGI (SK-MEL-5 melanoma) | TGI (MALME-3M melanoma) | TGI (HCT-116 colon) | TGI (NCI-H23 lung) | TGI (NCI/ADR-RES ovarian) | TGI (NCI-H226 lung) | TGI (LOX IMVI melanoma) | TGI (HCT-15 colon)
52.1 µM: TGI (HOP-92 NSCLC)
85.7 µM: TGI (SNB-75 CNS)
inactive: GI50 (SF-539 CNS) 63.2 µM | GI50 (SF-295 CNS) 54.7 µM | GI50 (MDA-MB-435) > 100 µM | GI50 (A549 NSCLC) > 100 µM | GI50 (K-562 leukemia) > 100 µM | GI50 (TK-10 renal) > 100 µM | GI50 (A498 renal) > 100 µM | GI50 (M14 melanoma) > 100 µM | GI50 (KM12 colon) > 100 µM | GI50 (OVCAR-5 ovarian) > 100 µM | GI50 (HCC-2998 colon) > 100 µM | GI50 (SK-OV-3 ovarian) 35.8 µM | GI50 (SN12C renal) > 100 µM | GI50 (UACC-62 melanoma) 78.8 µM | GI50 (UO-31 renal) > 100 µM | GI50 (RPMI-8226 leukemia) > 100 µM | GI50 (DU-145 prostate) > 100 µM | GI50 (COLO 205 colon) > 100 µM | GI50 (SR leukemia) > 100 µM | GI50 (OVCAR-3 ovarian) > 100 µM | GI50 (NCI-H522 lung) > 100 µM | GI50 (ACHN renal) > 100 µM | GI50 (CAKI-1 renal) > 100 µM | GI50 (MCF7 breast) > 100 µM | GI50 (CCRF-CEM leukemia) > 100 µM | GI50 (SK-MEL-2 melanoma) > 100 µM | GI50 (T-47D breast) > 100 µM | GI50 (SNB-19 CNS) 64.3 µM | GI50 (SF-268 CNS) 87.1 µM | GI50 (SNB-75 CNS) 27.5 µM | GI50 (MDA-MB-231 breast) > 100 µM | GI50 (HS 578T breast) 46.3 µM | GI50 (SW-620 colon) > 100 µM | GI50 (HL-60(TB) leukemia) > 100 µM | GI50 (HOP-62 NSCLC) 12.3 µM | GI50 (U251 CNS) 89.2 µM | GI50 (HOP-92 NSCLC) 21 µM | GI50 (SK-MEL-28 melanoma) > 100 µM | GI50 (NCI-H460 lung) 89.3 µM | GI50 (OVCAR-4 ovarian) > 100 µM | GI50 (PC-3 prostate) 63.1 µM | GI50 (EKVX NSCLC) > 100 µM | GI50 (IGROV1 ovarian) > 100 µM | GI50 (HT29 colon) > 100 µM | GI50 (786-0 renal) > 100 µM | GI50 (MOLT-4 leukemia) > 100 µM | GI50 (SK-MEL-5 melanoma) > 100 µM | GI50 (MALME-3M melanoma) > 100 µM | GI50 (HCT-116 colon) > 100 µM | GI50 (NCI-H23 lung) > 100 µM | GI50 (NCI/ADR-RES ovarian) > 100 µM | GI50 (NCI-H226 lung) > 100 µM | GI50 (LOX IMVI melanoma) > 100 µM | GI50 (HCT-15 colon) > 100 µM

CCOC(=O)c1ccc(N=C2S/C(=C\C(=S)Nc3ccccc3)N(c3ccccc3)C2=Nc2ccc(C(=O)OCC)cc2)cc1
> 100 µM: TGI (A549 NSCLC) | TGI (RXF 393 renal) | TGI (K-562 leukemia) | TGI (TK-10 renal) | TGI (M14 melanoma) | TGI (KM12 colon) | TGI (HCC-2998 colon) | TGI (SN12C renal) | TGI (UACC-62 melanoma) | TGI (UO-31 renal) | TGI (RPMI-8226 leukemia) | TGI (COLO 205 colon) | TGI (SR leukemia) | TGI (MCF7 breast) | TGI (CCRF-CEM leukemia) | TGI (SK-MEL-2 melanoma) | TGI (UACC-257 melanoma) | TGI (SNB-19 CNS) | TGI (SNB-75 CNS) | TGI (OVCAR-8 ovarian) | TGI (MDA-MB-231 breast) | TGI (HS 578T breast) | TGI (SW-620 colon) | TGI (HL-60(TB) leukemia) | TGI (HOP-62 NSCLC) | TGI (HOP-92 NSCLC) | TGI (SK-MEL-28 melanoma) | TGI (PC-3 prostate) | TGI (EKVX NSCLC) | TGI (IGROV1 ovarian) | TGI (HT29 colon) | TGI (786-0 renal) | TGI (MOLT-4 leukemia) | TGI (SK-MEL-5 melanoma) | TGI (HCT-116 colon) | TGI (NCI-H23 lung) | TGI (NCI-H226 lung) | TGI (HCT-15 colon) | TGI (BT-549 breast)
82.6 µM: TGI (MALME-3M melanoma)
